Source: patent US20250099420A1, “SMALL MOLECULE MODULATORS OF GPR139 COMPLEX” (University of Florida Research Foundation, Incorporated, priority 2022, published 2025)

Legend:
[1] = system: parental HEK cells; assay: HEK parental Antagonist Counterscreen Assay (non-transfected cells, acetylcholine control); type: cell-based; details: for EC50: Homo sapiens, HEK293, acetylcholine as control, scientific notation, molarity
[2] = target: T1, GPR139 (Homo sapiens, UniProt Q6DWJ6); assay: GPR139 Agonist titration / agonist counterscreen assay (calcium detection, HEK-GPR139 cells); type: cell-based; parameters: expressed in transfected cells; host or cells: HEK Aequorin cells, Maxcyte transient transfection; details: agonist counterscreen of the antagonists; for EC50: scientific notation, molarity, read-out: GRP139 Agonist activity EC50
T1 sequence (Q6DWJ6 1-353): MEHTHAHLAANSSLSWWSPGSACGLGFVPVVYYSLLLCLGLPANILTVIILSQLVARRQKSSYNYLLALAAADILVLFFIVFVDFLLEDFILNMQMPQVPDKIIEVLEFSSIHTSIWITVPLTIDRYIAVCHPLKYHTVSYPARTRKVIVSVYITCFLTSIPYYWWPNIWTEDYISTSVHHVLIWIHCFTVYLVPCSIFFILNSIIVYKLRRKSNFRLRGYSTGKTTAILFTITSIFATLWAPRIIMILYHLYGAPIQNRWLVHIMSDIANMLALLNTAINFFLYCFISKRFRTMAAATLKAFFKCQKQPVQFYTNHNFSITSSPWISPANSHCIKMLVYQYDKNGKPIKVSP
Experimental: GPR activity was assessed using a calcium detection assay. […] Negative control samples were treated with DMSO. […] Intracellular calcium was measured using Calcium 5.

[3] = target: T1, GPR139; assay: GPR139 Antagonist titration assay (calcium detection, HEK-GPR139 cells, vs EC80 of S-JNJ-63533054); details: for GPR139 Antagonist Activity Averaged Max % Response (±St. Dev.): activity relative to known control; for GPR139 Antagonist Activity Lipophilic Efficiency (logD): based on logD; for GPR139 Antagonist Activity Lipophilic Efficiency (logP): based on logP; for GPR139 Antagonist Activity Hill Slope: fitted dose-response curve

GRP139 Agonist activity Averaged Max % Response (±St. Dev.) [2]	EC50 [2]	EC50 [3]	GPR139 Antagonist Activity Ligand Efficiency [3]	GPR139 Antagonist Activity Averaged Max % Response (±St. Dev.) [3]	GPR139 Antagonist Activity Lipophilic Efficiency (logD) [3]	GPR139 Antagonist Activity Lipophilic Efficiency (logP) [3]	GPR139 Antagonist Activity Hill Slope [3]	GRP139 Agonist activity Hill Slope [2]	Structure (SMILES)	HEK antagonist activity Averaged Max % Response (±St. Dev.) [1]	EC50 [1]
−9.5E+0 ± 9.17 ^ %	> 11.7 µM	8.8 µM	0.25	57.55 ± 8.35%	−866.9E−3	−866.9E−3	1.89		CCCc1sc(N2CCN(C(=O)c3ccccc3)CC2)nc1-c1ccccc1 [SR-01000451510]	16.06 ± 4.81%	> 11.7 µM
6.60 ± 4.93%	> 8.9 µM	2.2 µM	0.27	58.56 ± 7.31%	−1.6E+0	−1.6E+0	1.46		Cc1cc(C)c(NC(=O)c2ccc(Br)cc2)c(C)c1NC(=O)c1ccc(Br)cc1 [SR-01000512383]	33.99 ± 7.44%	> 8.9 µM
3.89 ± 5.42%	> 10.8 µM	7.9 µM	0.22	56.80 ± 4.90%	−1.1E+0	−1.1E+0	0.94		COc1ccc(C(C(=O)NC(C)c2ccccc2)(c2ccccc2)c2ccccc2)cc1 (stereo not shown) [SR-01000529482]	16.45 ± 6.46%	> 10.8 µM
3.98 ± 7.81%	> 10.6 µM	2.1 µM	0.23	82.63 ± 2.69%	1.36	1.36	0.63		COc1cc(C(=O)Nc2ccc(N3C(=O)c4ccc(Cl)cc4C3=O)c(C)c2)cc(OC)c1OC [SR-01000419723]	25.06 ± 17.50%	> 10.6 µM
21.98 ± 2.69%	> 15.3 µM	3.9 µM	0.47	80.83 ± 4.99%	2.61	2.61	1.01		CC1=NN(Cc2ccc(Cl)cc2Cl)C(=O)C1 [SR-01000043246]	6.06 ± 11.65%	> 15.3 µM
13.37 ± 4.41%	> 14.1 µM	> 1.6 µM	0.33	87.64 ± 8.11%	0.62	0.62			Cc1cccc(-n2ccnc2SCC(=O)Nc2cccc(C)c2C)c1 [SR-01000907209]	18.39 ± 12.65%	> 14.1 µM
35.82 ± 4.87%	> 14.1 µM	1.5 µM	0.25	88.60 ± 6.25%	1.51	1.51	0.23		Cc1c(-c2cccc(NC(=O)C3c4ccccc4Oc4ccccc43)c2)nc2ncccn12 [SR-01000907648]	55.77 ± 9.26%	7.6 µM
19.55 ± 6.15%	> 10.5 µM	1.1 µM	0.24	90.79 ± 3.84%	−130.5E−3	−130.5E−3	1.41		COc1cccc(OC)c1C(=O)Oc1ccc2c(=O)c(-c3ccc(Cl)cc3)c(C(F)(F)F)oc2c1 [SR-01000471218]	69.47 ± 1.93%	10.1 µM
68.19 ± 17.63%	9.1 µM	0.98 µM	0.37	82.02 ± 2.67%	2.55	1.57	1.59	1.01	O=c1c(-c2ccc(Cl)cc2)c(C(F)(F)F)oc2cc(O)ccc12 [SR-01000438114]	104.21 ± 5.67%	4.2 µM
4.88 ± 6.79%			0.31	48.35 ± 1.75%	1.00	1.00			CC(=O)N1N=C(c2ccc(C)cc2)CC1c1ccccc1F (stereo not shown) [SR-01000429850]	−3.2E+0 ± 5.20 ^ %	> 15.5 µM
25.84 ± 3.55%	> 12 µM	2.7 µM	0.39	85.61 ± 2.70%	0.57	0.57	1.30		CCCCCCOC(=S)SCC(=O)Nc1ccccc1 [SR-01000508699]	23.85 ± 9.06%	> 12 µM
−987E−3 ± 9.16 ^ %			0.22	56.13 ± 9.03%	2.24	2.24	1.46		CCOC(=O)N1CCC(NC(=O)c2cnn3c(O)c(Cc4cccc(C)c4)c(C)nc23)CC1 [SR-01000581959]	14.54 ± 9.66%	> 13.4 µM
25.24 ± 7.47%	> 14.3 µM	5.9 µM	0.39	70.81 ± 7.08%	2.11	2.11	1.05		N#CCC(=O)c1ccccc1Oc1ccc(F)cc1 [SR-01000308363]	14.98 ± 11.31%	> 14.3 µM
2.74 ± 8.83%	> 13.9 µM	> 13.9 µM	0.24	49.37 ± 5.06%	−233.9E−3	−233.9E−3			Cc1cc(C(F)(F)F)nc(SCC(=O)Nc2cccc(C(F)(F)F)c2)c1C#N [SR-01000507831]	11.97 ± 1.54%	> 13.9 µM
15.11 ± 5.37%	> 12.5 µM	3.6 µM	0.32	87.35 ± 5.76%	0.49	0.49	1.28		O=C(NCCC1CCCCC1)N1c2ccccc2Sc2ccccc21 [SR-01000452455]	0.92 ± 5.75%	> 12.5 µM
28.29 ± 7.43%	> 13.6 µM	> 4.5 µM	0.29	80.54 ± 5.09%	0.71	0.71			Cc1ccc(Oc2ccc(OCC(=O)N3C(C)CCCC3C)cc2)cc1 (stereo not shown) [SR-01000445554]	26.51 ± 5.44%	> 13.6 µM
5.85 ± 3.71%	> 11.3 µM	5 µM	0.26	77.15 ± 0.74%	−521.6E−3	−521.7E−3	1.24		O=C(CSc1nc(-c2ccccc2)cn1-c1ccc(F)cc1)Nc1ccccc1 [SR-01000555413]	−6.1E+0 ± 7.39 ^ %	> 11.3 µM
